For one assay, the system named is Leishmania donovani. In words: Antiprotozoal activity against Leishmania donovani MHOM/ET/L82/LV9. It is filed as functional, organism-based.
Assay [1] relates to Trypanosoma brucei brucei. In words: Antiprotozoal activity against Trypanosoma brucei brucei GVR35. It is filed as functional.
For a further assay, the system named is Trichomonas vaginalis. In words: Antiprotozoal activity against Trichomonas vaginalis CMP. In kind it is functional, organism-based.

This is an account of results in ChEMBL document CHEMBL1149446, “Synthesis and antiprotozoal activity of some new synthetic substituted quinoxalines” (Bioorg Med Chem Lett, 2006).

Structures are written as SMILES.

In general, IC50 refers to the concentration that gives 50% inhibition. Low values mean higher potency, high ones lower potency. On to `COc1cc2oc3ccccc3c2cc1NC(=O)c1ccc2nc(-c3ccccc3)c(-c3ccccc3)nc2c1`, for which the IC50 in the assay on Leishmania donovani and in the assay with Trichomonas vaginalis was over 300 µM in each case. In assay [1], the MAC is over 300 µM.

For `O=C(Nc1ccc2nccnc2c1Br)c1ccc2ccccc2n1`, the IC50 in the assay on Leishmania donovani and in the assay on Trichomonas vaginalis was over 300 µM throughout. The MAC in assay [1] was over 300 µM.

Take `Cc1ncc([N+](=O)[O-])n1CCO` [METRONIDAZOLE]: the IC50 in the assay with Trichomonas vaginalis came to 5.8 µM.

As for `O=C(Nc1cccc2c1oc1ccccc12)c1ccc2nc(-c3ccccc3)c(-c3ccccc3)nc2c1`, the IC50 with Leishmania donovani and with Trichomonas vaginalis was over 300 µM in each case. Moreover, in assay [1], the MAC was over 300 µM.

As to `CCc1ccc(OCc2ccccc2NC(=O)c2ccc3nc(-c4ccccc4)c(-c4ccccc4)nc3c2)cc1`, the IC50 with Leishmania donovani and with Trichomonas vaginalis was over 300 µM each time. In addition, the MAC in assay [1] was over 300 µM.

In the case of `CCCCCCCCCCCCC(=O)Nc1ccc2nccnc2c1Br`, the IC50 in the assay with Leishmania donovani and with Trichomonas vaginalis was over 300 µM throughout. The MAC in assay [1] was over 300 µM.

Consider `c1cnc2cc(NCc3ccc4c(c3)OCO4)ccc2n1`, for which the half-inhibitory concentration (IC50) in the assay on Leishmania donovani was 79.5 µM; in the assay with Trichomonas vaginalis, over 300 µM. In addition, the MAC in assay [1] is over 300 µM.

Take `COc1cc2oc3ccccc3c2cc1NC(=O)c1ccc2nccnc2c1`: the IC50 with Leishmania donovani and in the assay with Trichomonas vaginalis was over 300 µM throughout. In assay [1], this molecule yielded an MAC of over 300 µM.

`Nc1nc(N)nc(Nc2ccc([As]3SCC(CO)S3)cc2)n1` (stereo not given) [MELARSOPROL] gave an MAC in assay [1] of 0.1 µM.

Regarding `CCn1c2ccccc2c2cc(NC(=O)c3ccc4nccnc4c3)ccc21`, the IC50 in the assay with Leishmania donovani and with Trichomonas vaginalis was over 300 µM each time. Besides, in assay [1], the MAC was determined as 200 µM.

Molecule `CCCCCCCCCCCCCCCCOP(=O)([O-])OCC[N+](C)(C)C` [MILTEFOSINE] returned an IC50 in the assay with Leishmania donovani of 7.3 µM.

Turning to `CCc1ccc(OCc2ccccc2NC(=O)c2ccc3nc(C)c(C)nc3c2)cc1`, the IC50 in the assay with Leishmania donovani and with Trichomonas vaginalis was over 300 µM in each case. Moreover, the MAC in assay [1] was over 300 µM.

With `CCc1ccc(OCc2ccccc2C(=O)Nc2ccc3nc(C)cnc3c2)cc1`, the IC50 in the assay with Leishmania donovani is 12.5 µM; in the assay with Trichomonas vaginalis, over 300 µM. Moreover, the MAC in assay [1] worked out at 200 µM.

Consider `CCn1c2ccccc2c2cc(NC(=O)c3ccc4nc(-c5ccccc5)c(-c5ccccc5)nc4c3)ccc21`, for which the IC50 with Leishmania donovani and with Trichomonas vaginalis was over 300 µM in each case. The molecule also displayed an MAC in assay [1] of over 300 µM.

Consider `c1ccc(CNc2ccc3nccnc3c2)cc1`, for which the IC50 was found to be 92.4 µM with Leishmania donovani and 264 µM in the assay with Trichomonas vaginalis. In assay [1], the MAC is over 300 µM.

Consider `CCCCCNc1ccc2nccnc2c1`, for which the half-maximal inhibitory concentration (IC50) with Leishmania donovani came out at 46.3 µM; in the assay with Trichomonas vaginalis, 243 µM. The same molecule registered an MAC in assay [1] of over 300 µM.

In the case of `COc1cc2oc3ccccc3c2cc1N(C(=O)c1ccc2nc(-c3ccccc3)c(-c3ccccc3)nc2c1)C(=O)c1ccc2nc(-c3ccccc3)c(-c3ccccc3)nc2c1`, the IC50 with Leishmania donovani and in the assay with Trichomonas vaginalis was over 300 µM throughout. In assay [1], this molecule returned an MAC of over 300 µM.

Regarding `Cc1nc2ccc(NC(=O)C34CC5CC(CC(C5)C3)C4)cc2nc1C`, the IC50 in the assay with Leishmania donovani and in the assay with Trichomonas vaginalis was over 300 µM in each case. In assay [1], this molecule had an MAC of over 300 µM.

In the case of `O=C(Nc1ccc2nccnc2c1Br)c1ccc(C(=O)c2ccccc2)cc1`, the IC50 in the assay on Leishmania donovani and in the assay with Trichomonas vaginalis was over 300 µM throughout. The MAC in assay [1] is over 300 µM.

For the molecule `CCc1ccc(OCc2ccccc2NC(=O)c2ccc3nc(C)cnc3c2)cc1`, the IC50 in the assay with Leishmania donovani and with Trichomonas vaginalis was over 300 µM throughout. In assay [1], the MAC is over 300 µM.

In the case of `CCCCCCC(=O)Nc1ccc2nccnc2c1Br`, the IC50 in the assay with Leishmania donovani and with Trichomonas vaginalis was over 300 µM each time. In assay [1], the MAC is over 300 µM.

As for `CCc1ccc(OCc2ccccc2NC(=O)c2ccc3nccnc3c2)cc1`, the half-inhibitory concentration (IC50) with Leishmania donovani is 18.4 µM; in the assay with Trichomonas vaginalis, over 300 µM. The MAC in assay [1] is 200 µM.

As to `CCCCCCCCCCCCCCCC(=O)Nc1ccc2nc(C)c(C)nc2c1`, the IC50 with Leishmania donovani and with Trichomonas vaginalis was over 300 µM in each case. For the same molecule, the MAC in assay [1] was over 300 µM.

On to `CCc1ccc(OCc2ccccc2C(=O)Nc2ccc3nc(C)c(C)nc3c2)cc1`, for which the IC50 was 8.2 µM with Leishmania donovani and over 300 µM in the assay on Trichomonas vaginalis. Also, the MAC in assay [1] amounted to 200 µM.

Turning to `CCCCCCCCCCCCCCCC(=O)Nc1ccc2nccnc2c1Br`, the half-maximal inhibitory concentration (IC50) in the assay with Leishmania donovani and in the assay with Trichomonas vaginalis was over 300 µM throughout. Besides, in assay [1], the MAC was over 300 µM.

`O=C(Nc1ccc2nccnc2c1)c1ccc(Br)o1`: the half-maximal inhibitory concentration (IC50) with Leishmania donovani and in the assay with Trichomonas vaginalis was over 300 µM each time. Besides, in assay [1], the MAC was over 300 µM.

`O=[N+]([O-])c1ccc(CNc2ccc3nccnc3c2)cc1`: the IC50 in the assay on Leishmania donovani was over 300 µM; with Trichomonas vaginalis, 191 µM. The same molecule showed an MAC in assay [1] of over 300 µM.

For the molecule `CCCCCCC(=O)Nc1ccc2nccnc2c1`, the values for the IC50 in the assay with Leishmania donovani and in the assay with Trichomonas vaginalis were 117 µM and over 300 µM, respectively. Besides, in assay [1], the MAC is over 300 µM.

For `CCc1ccc(OCc2ccccc2C(=O)Nc2ccc3nccnc3c2)cc1`, the IC50 in the assay with Leishmania donovani is 18.5 µM; in the assay with Trichomonas vaginalis it was 126 µM. Besides, the MAC in assay [1] was determined as 150 µM.

With `CCc1ccc(OCc2ccccc2C(=O)Nc2ccc3nc(-c4ccccc4)c(-c4ccccc4)nc3c2)cc1`, the IC50 with Leishmania donovani and in the assay with Trichomonas vaginalis was over 300 µM each time. In assay [1], the MAC was over 300 µM.

`c1ccc2c(CNc3ccc4nccnc4c3)ccnc2c1`: the concentration for half-maximal inhibition (IC50) in the assay with Leishmania donovani was 34 µM; with Trichomonas vaginalis, over 300 µM. Besides, the MAC in assay [1] is over 300 µM.

`CCn1c2ccccc2c2cc(N(C(=O)c3ccc4nc(-c5ccccc5)c(-c5ccccc5)nc4c3)C(=O)c3ccc4nc(-c5ccccc5)c(-c5ccccc5)nc4c3)ccc21`: the 50% inhibitory concentration (IC50) in the assay on Leishmania donovani and with Trichomonas vaginalis was over 300 µM in each case. The molecule further came in with an MAC in assay [1] of over 300 µM.
